Measurements: publication PMC4503694, “The Human Autoantibody Response to Apolipoprotein A-I Is Focused on the C-Terminal Helix: A New Rationale for Diagnosis and Treatment of Cardiovascular Disease?” (PLoS ONE, 2015)

What was measured:
[1] = test system: anti-ApoA-I antibodies in plasma samples from three different patients; assay: Competition ELISA with plasma of three individual anti-ApoA-I-positive patients; type: binding, human; conditions: preincubated 2 h at room temperature with peptide, n = 3 (Fig 3)
Method: We next performed ELISA assays using plasma samples from three different anti-ApoA-I autoantibody-positive patients from the cohort pre-incubated with Peptide F, a scrambled version of Peptide F (Table 1), or the stapled peptide F3L1 prior to addition to wells coated with ApoA-I (Fig 3).
Plasma samples were preincubated (2 h, room temperature) with peptides at the indicated concentrations prior to addition to assay wells. Percent maximal ELISA signals were calculated as 100 × ([signal in well]-[mean background signal (uncoated well)])/ ([mean maximal signal (no peptide)]-[mean background signal]). Results are expressed as mean ± SD (n = 3).

[2] = test system: human monocyte-derived macrophages; assay: Anti-ApoA-I IgG-mediated IL-6 and TNF-α release from human monocyte-derived macrophages; type: cell-based; conditions: peptide preincubated with anti-ApoA-I IgG 2 h at room temperature; highest concentration 1 mg/mL (Fig 5, 6)
Method: Human monocytes were isolated from buffy coats from healthy donors at the Geneva University Hospitals Blood Transfusion Center and differentiated into macrophages by 24 h incubation with IFN-γ (500 U/ml) in complete RPMI-1640 culture medium (10% heat-inactivated FCS, 50 μg/ml streptomycin, 50 U/ml penicillin, 2 mM L-glutamine), as previously described. Assays of anti-ApoA-I IgG-mediated release of IL-6 and TNF-α from human monocyte-derived macrophages was carried out as described previously using a previously determined optimal concentration of polyclonal goat anti-ApoA-I IgG (40 μg/ml). Endotoxin contamination in the assay was excluded using the limulus amebocyte lysate Endochrome assay. Where indicated, anti-ApoA-I IgG was pre-incubated with peptide […] (1 mg/mL) for 2 h at room temperature prior addition to the cells. Each experiment was performed on cells from […] different healthy blood donors. […] We next used a Luminex assay to measure the capacity of peptide […] to inhibit endotoxin-free anti-ApoA-I IgG-mediated proinflammatory cytokine release in human monocyte-derived macrophages (Fig 5a and 5b). As expected from previously published work, anti-ApoA-I IgG elicited a significant increase in production of both in IL-6 and TNF-α when compared to control IgG (Ctl IgG; p<0.0001 for both cytokines). […] We were unable to measure the inhibitory activity of intact purified and delipidated ApoA-I in this assay because traces of endotoxin elicit significant levels of background cytokine secretion (NV and SP, unpublished observations).  Fig 5 Peptide […] inhibits anti-ApoA-I IgG-mediated release of proinflammatory cytokines from cultured human monocyte-derived macrophages. Release of proinflammatory cytokines TNF-α (a) IL-6 (b) from human monocyte-derived macrophages induced by endotoxin-free goat polyclonal anti-ApoA-I IgG was determined with or without preincubation (2 h at room temperature) of the anti-ApoA-I IgG with peptide […] (1 mg/mL) and the corresponding scrambled peptide (Scr Pept). […] Anti-ApoA-I IgG was incubated with the indicated […] concentrations (preincubation 2 h at room temperature) prior to addition to cultured human monocyte-derived macrophages. Levels of proinflammatory cytokines were determined after 24 h culture. Experiments were repeated using cells from three different healthy donors, with results expressed as median, interquartile range (IQR) and range.

[3] = test system: RAW cells; assay: Anti-ApoA-I IgG-induced TNF-α release in RAW mouse macrophage cell line; type: cell-based; conditions: anti-ApoA-I IgG 100 μg/ml preincubated 2 h with peptide 100 to 0.06 μg/ml; 24 h stimulation; ELISA; n = 3 (Fig 7)
Method: Raw cells were seeded in 96-well plates at 2 × 10^5 cells/well in DMEM culture medium (10% heat-inactivated FCS, 50 μg/ml streptomycin, 50 U/ml penicillin) for 24 h. Anti-Apo-A1 IgG (100 μg/ml) were incubated with peptides across a concentration range from 100 μg/ml to 0.06 μg/ml for 2 h at room temperature prior addition to cells. After 24 h stimulation, mouse TNF-α was quantified in the cell supernatants by ELISA according to manufacturer’s instructions (R&D system, MN).
Fig 7 Comparing the inhibitory potency of Peptide F and F3L1 on anti-ApoA-I IgG-induced TNF-α. Anti-ApoA-I IgG was incubated with the indicated peptide concentrations (preincubation 2 h at room temperature) prior to addition to cultured RAW cells. Levels of proinflammatory cytokines (TNF-α) were determined after 24 h culture. Mean levels (n = 3) are shown with error bars indicating the range.

[4] = test system: anti-ApoA-I autoantibodies in pooled patient plasma; assay: Capture ELISA: immunoreactivity of pooled anti-ApoA-I-positive patient plasma to coated peptides; type: binding, human; conditions: pooled plasma of anti-ApoA-I-positive patients; peptide as coating antigen; mean ± SD, n = 3 (Fig 1a)
Method: Anti-ApoA-I IgG autoantibodies in plasma were measured as described previously. Briefly, Maxisorp plates (Nunc) were coated with purified and delipidated human ApoA-I, diluted in carbonate buffer pH 9.7 (20 μg/ml; 50 μl/well), for 1 h at 37°C. The same procedure was used for the engineered peptides. After three washes with PBS/ 2% (w/v) BSA (100 μl/well), all wells were blocked for 1 h with PBS/ 2% (w/v) BSA at 37°C. Samples were diluted 1:50 in PBS/ 2% (w/v) BSA and incubated for 60 min at 37°C. Samples at the same dilution were also added to a non-coated well to assess individual non-specific binding. After six further washes, 50 μl/well of alkaline-phosphatase conjugated anti-(human IgG) (Sigma-Aldrich), diluted 1:1000 in PBS/ 2% (w/v) BSA, was incubated for 1 h at 37°C. After six more washes (150 μl/well) with PBS/ 2% (w/v) BSA, the phosphatase substrate p-nitrophenyl phosphate (50μl/well; 1mg/ml; Sigma—Aldrich) dissolved in 4.8% (w/v) diethanolamine (pH 9.8) was added. Each sample was tested in duplicate and A 405nm was determined after 20 min of incubation at 37°C (VERSAMax; MolecularDevices). The corresponding non-specific binding was subtracted from the mean absorbance for each sample. As in previous studies, positive immunoreactivity of human samples to ApoA-I was prospectively defined by an index >37%. This value was also used to define positive immunoreactivity to mimetic peptides, as defined upon receiver operating characteristic (ROC) curve analyses, and shown to provide an identical prevalence of positive immunoreactivity levels 11% […] to native ApoA-1 and 11% (14/132) to F3L1 peptide (data not shown). Repeatability and reproducibility were determined at two levels. At a high level (A 405nm = 1.2, i.e. twice the cut-off value), the intra- and inter-assay coefficients of variation were 10% (n = 10) and 17% (n = 10) respectively. At the cut-off level, the intra- and inter-assay coefficients of variation were 16% (n = 10) and 12% (n = 8) respectively.
In order to characterize the anti-ApoA-I autoantibody response, we chemically synthesized a panel of peptides corresponding to the different alpha-helical regions in the protein (Table 1). Each of the two longest helical regions, C and D, were synthesized as two separate peptides (C1, C2, D1, D2) whose sequences are located on either side of centrally located proline residues (Pro^121 for Region C, Pro^165 for Region D (Table 1)). The synthetic peptides were then used as coating antigens in a capture ELISA experiment to compare their immunoreactivity against pooled plasma from a subset of patients from our acute chest pain cohort that had previously shown to be positive for anti-ApoA-I autoantibodies (Fig 1a).
(§1) Fig 1 The anti-ApoA-I autoantibody response is strongly biased towards the C-terminal alpha-helical region. ELISA experiments were carried out using a set of ApoA-I-derived peptides (Table 1). a. Capture ELISA assay to determine the immunoreactivity of plasma pooled from patients known to be positive for anti-ApoA-I autoantibodies against the set of peptides. Specific ELISA signals were calculated as [signal in well]-[mean background signal (uncoated well)]. Results are expressed as mean ± SD (n = 3) b and c. Competition ELISA to determine the capacity of the set of peptides to block binding of anti-ApoA-I antibodies from either pooled patient plasma (b) or goat polyclonal IgG (c) to immobilized ApoA-I. Plasma or antibody was preincubated (2 h, room temperature) with peptides at the indicated concentrations prior to addition to assay wells. Percent maximal ELISA signals were calculated as 100 × ([signal in well]-[mean background signal (uncoated well)])/([mean maximal signal (no peptide)]-[mean background signal]). Results are expressed as mean ± SD (n = 3).

[5] = test system: goat polyclonal anti-ApoA-I IgG; assay: Competition ELISA: peptides block binding of goat polyclonal IgG to immobilized ApoA-I; conditions: goat polyclonal anti-ApoA-I IgG preincubated with peptide; wells coated with ApoA-I (Fig 1c)
Method: as §1, with “3). […] In contrast, when pre-incubated with goat polyclonal anti-ApoA-I IgG, none of the peptides, including Peptide F, decreased signal inhibition by 15% at the highest concentration (Fig 1c). […]” for “3).”

[6] = test system: anti-ApoA-I antibodies from pooled patient plasma; assay: Competition ELISA: peptides block binding of antibodies from pooled patient plasma to immobilized ApoA-I; set-up: species or system human; conditions: pooled patient plasma preincubated 2 h at room temperature with peptide; wells coated with intact ApoA-I (Fig 1b)
Method: as §1, with “3). […] In contrast, when pre-incubated with goat polyclonal anti-ApoA-I IgG, none of the peptides, including Peptide F, decreased signal inhibition by 15% at the highest concentration (Fig 1c). […]” for “3).”

Substance	plasma immunoreactivity (specific ELISA signal) to coated peptide [4]	further results
KELYLLKFTVESKVGSTELPLNFSLA [F (scrambled), scrambled version of Peptide F, control peptide, reference compound]	–	inhibition of binding of anti-ApoA-I IgG to immobilized ApoA-I [1]: No inhibition was detectable; inhibition of anti-ApoA-I IgG-induced TNF-α and IL-6 release [2]: did not inhibit; inhibitory potency on anti-ApoA-I IgG-induced TNF-α [3]: no detectable inhibitory activity
E: ApoA-I-derived peptide, residues 190–213 (AEYHAKATEHLSTLSEKAKPALED; UniProt P02647 214-237, looked up, fragment)	low signals	–
YSDELRQRLAARLEALKENGGA [Peptide D2, ApoA-I-derived peptide, residues 166–187]	low signals	–
B: ApoA-I-derived peptide, residues 50–84 (WDSVTSTFSKLREQLGPVTQEFWDNLEKETEGLRQ; UniProt P02647 74-108, looked up, fragment)	intermediate signals	–
A: ApoA-I-derived peptide, residues 10–39 (RVKDLATVYVDVLKDSGRDYVSQFEGSALG; UniProt P02647 34-63, looked up, fragment)	low signals	–
C1: ApoA-I-derived peptide, residues 97–120 (VQPYLDDFQKKWQEEMELYRQKVE; UniProt P02647 121-144, looked up, fragment) [Peptide C1]	low signals	–
C2: ApoA-I-derived peptide, residues 122–142 (LRAELQEGARQKLHELQEKLS; UniProt P02647 146-166, looked up, fragment) [Peptide C2]	intermediate signals	–
LGEEMRDRARAHVDALRTHLAPYSDEL [Peptide D1, ApoA-I-derived peptide, residues 143–164]	low signals	–
GLLPVLESFKVSFLSALEEYTKKLNT [Peptide F, ApoA-I-derived peptide, residues 220–242, C-terminal alpha-helix]	strongest signal	decrease of ELISA signal at the highest peptide concentration [5]: < 15%; inhibition of anti-ApoA-I IgG-induced TNF-α and IL-6 release [2]: comparable to that of F3L1; maximal inhibition plateau of total anti-ApoA-I signal [6]: approximately 50%; peptide concentration above which inhibition of ELISA signal is seen [6]: above 3 μM
